Measured values: patent publication US4760136A, “Chartreusin derivatives and salts thereof” (Ishihara Sangyo Kaisha, Ltd., priority 1984, dated 1988)
Where a name gives a salt, the structure may show the parent alone. Read-outs that look alike come from different tables or passages of the source.

Tests used:
[1] = test system: P-388 leukemia cells; assay: Antitumor activity: P-388 leukemia cells inoculated intraperitoneally, drug administered intravenously, BDF1 mice; format: in vivo; details: for response vs control in vivo at 80 mg/kg: dose f: 80 mg/kg × 3, i.v. on days 1, 5 and 9; for response vs control in vivo at 10 mg/kg: dose a: 10 mg/kg × 3, i.v. on days 1, 5 and 9; for response vs control in vivo at 50 mg/kg: dose d: 50 mg/kg × 3, i.v. on days 1, 5 and 9
Outline: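 Drug dosing was intravenous on the first, fifth and ninth days after intraperitoneal inoculation of P-388 leukemia cells (1×10^6 per mouse) into BDF1 mice. Vehicles were physiological saline alone, or saline with small amounts of sodium carboxymethyl cellulose or Tween-80.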

[2] = Acute toxicity, intravenous (once), ddY mice; format: in vivo; details: mouse, in vivo, formulated per Preparation Example
From the text: In Table 7 are shown acute toxicity values (LD50, mg/kg) in ddY mice in the case of intravenously administering (once) each of the compounds of this invention in the form of preparations shown in the Preparation Examples shown in Table 7.

[3] = Mus musculus, P388, iv, dose b: 20 mg/kg × 3, i.v. on days 1, 5 and 9, BDF1 mice, P-388 i.p., read-out: T/C (%) of MST
[4] = Mus musculus, P388, iv, dose c: 40 mg/kg × 3, i.v. on days 1, 5 and 9, BDF1 mice, P-388 i.p., read-out: T/C (%) of MST
[5] = Mus musculus, P388, iv, BDF1 mice, P-388 i.p., read-out: T/C (%) of MST
[6] = Mus musculus, P388, iv, read-out: T/C (%) of MST

Row | Compound | response vs control in vivo at 20 mg/kg [1, 3] [%] | LD50 ([2]; iv) [mg/kg] | response vs control in vivo at 40 mg/kg [1, 4] [%] | response vs control in vivo at 80 mg/kg [1, 5] [%] | further results
1 | COC1C(O)C(C)OC(OC2C(Oc3cccc4c(OC(=O)C(C)CN(C(=O)OCc5ccccc5)C(C)C)c5c(=O)oc6ccc(C)c7c(=O)oc(c34)c5c67)OC(C)C3OC(c4ccccc4)OC32)C1O (stereo not drawn) [Compound No. 135, 6-O-(N-Carbobenzyloxy-N-Isopropyl-β-Amino-isobutyryl)-3',4'-O-benzylidenechartreusin] | 167 | ≥ 40 | – | – | –
2 | COC1C(O)C(C)OC(OC2C(Oc3cccc4c(OC(=O)CCNC=O)c5c(=O)oc6ccc(C)c7c(=O)oc(c34)c5c67)OC(C)C3OC(c4cccc(Cl)c4)OC32)C1O (stereo not shown) [compound 90] | 162 | ≥ 30 | – | – | –
3 | CO[C@H]1[C@@H](O)[C@@H](C)O[C@H](O[C@H]2[C@H](Oc3cccc4c(OC(=O)c5ccc(Cl)cc5Cl)c5c(=O)oc6ccc(C)c7c(=O)oc(c34)c5c67)O[C@H](C)[C@@H]3OC(C)(C)O[C@@H]32)[C@@H]1O [Compound No. 180] | – | ≥ 80 | 145 | 208 | –
4 | CO[C@H]1[C@@H](O)[C@@H](C)O[C@H](O[C@H]2[C@H](Oc3cccc4c(OC(=O)CCC(=O)c5ccc(F)cc5)c5c(=O)oc6ccc(C)c7c(=O)oc(c34)c5c67)O[C@H](C)[C@@H]3OC(C)(C)O[C@@H]32)[C@@H]1O [compound 206] | – | ≥ 80 | 139 | 180 | –
5 | C/C=C(\C)C(=O)Oc1c2cccc(OC3OC(C)C4OC(c5cccc(C(F)(F)F)c5)OC4C3OC3OC(C)C(O)C(OC)C3O)c2c2oc(=O)c3c(C)ccc4oc(=O)c1c2c43 (stereo not drawn) [Compound No. 161, 6-O-(Trans-2-Methyl-2-Butenoyl)-3',4'-O-(m-Trifluoromethylbenzylidene)Chartreusin] | – | ≥ 80 | 169 | 234 | –
6 | C/C=C(\C)C(=O)Oc1c2cccc(OC3OC(C)C4OC(c5ccccc5)OC4C3OC3OC(C)C(O)C(OC)C3O)c2c2oc(=O)c3c(C)ccc4oc(=O)c1c2c43 (stereo not shown) [compound 231] | – | – | – | – | response vs control in vivo at 20 mg/kg [1, 6]: 150%; LD50 [2]: ≥ 40 mg/kg
7 | COC1C(O)C(C)OC(OC2C(Oc3cccc4c(OC(=O)CNC(=O)OCc5ccccc5)c5c(=O)oc6ccc(C)c7c(=O)oc(c34)c5c67)OC(C)C3OC(c4ccccc4)OC32)C1O (stereo not shown) [compound 71] | 157 | ≥ 40 | – | – | –
8 | COC1C(O)C(C)OC(OC2C(Oc3cccc4c(OC(=O)C(CC[S+](C)[O-])NC(=O)OCc5ccccc5)c5c(=O)oc6ccc(C)c7c(=O)oc(c34)c5c67)OC(C)C3OC(C)(C)OC32)C1O (stereo not shown) [compound 102] | – | ≥ 100 | – | 187 | –
9 | COC1C(O)C(C)OC(OC2C(Oc3cccc4c(OC(=O)C(C)CNC(=O)CNC(=O)OCc5ccccc5)c5c(=O)oc6ccc(C)c7c(=O)oc(c34)c5c67)OC(C)C3OC(c4ccccc4)OC32)C1O (stereo not shown) [compound 74] | 186 | ≥ 40 | – | – | –
10 | COC1C(O)C(C)OC(OC2C(Oc3cccc4c(OC(=O)CCNC=O)c5c(=O)oc6ccc(C)c7c(=O)oc(c34)c5c67)OC(C)C3OC(c4ccco4)OC32)C1O (stereo not shown) [compound 84] | – | ≥ 80 | 145 | 208 | –
11 | COC1C(O)C(C)OC(OC2C(Oc3cccc4c(OC(=O)CCN)c5c(=O)oc6ccc(C)c7c(=O)oc(c34)c5c67)OC(C)C3OC(c4ccccc4)OC32)C1O (stereo not shown) [Compound No. 18] | – | ≥ 40 | – | – | T/C (%) of MST ([1]; dose b: 20 mg/kg × 3, i.v. on days 1, 5 and 9, BDF1 mice, P-388 i.p.): 196%; T/C (%) of MST ([1]; dose c: 40 mg/kg × 3, i.v. on days 1, 5 and 9, BDF1 mice, P-388 i.p.): 238%
12 | CCCC(=O)Oc1c2cccc(O[C@@H]3O[C@H](C)[C@@H]4OC(c5ccccc5OC)O[C@@H]4[C@H]3O[C@H]3O[C@H](C)[C@H](O)[C@H](OC)[C@H]3O)c2c2oc(=O)c3c(C)ccc4oc(=O)c1c2c43 (stereo partly shown) [compound 216] | – | – | – | – | response vs control in vivo at 40 mg/kg [1, 6]: 171%; LD50 [2]: ≥ 40 mg/kg
13 | CCC(CN(C)C)C(=O)Oc1c2cccc(OC3OC(C)C4OC(c5ccccc5)OC4C3OC3OC(C)C(O)C(OC)C3O)c2c2oc(=O)c3c(C)ccc4oc(=O)c1c2c43 (stereo not shown) [compound 134] | 175 | ≥ 30 | – | – | response vs control in vivo at 10 mg/kg [1, 5]: 192%
14 | COC1C(O)C(C)OC(OC2C(Oc3cccc4c(OC(=O)CCNC(=O)c5ccccc5)c5c(=O)oc6ccc(C)c7c(=O)oc(c34)c5c67)OC(C)C3OC(C)(C)OC32)C1O (stereo not shown) [Compound No. 50] | – | ≥ 100 | – | – | response vs control in vivo at 60 mg/kg ([1]; Mus musculus, P388, iv, dose e: 60 mg/kg × 3, i.v. on days 1, 5 and 9, BDF1 mice, P-388 i.p., read-out: T/C (%) of MST): 155%
15 | COc1cccc(C(=O)Oc2c3cccc(O[C@@H]4O[C@H](C)[C@@H]5OC(C)(C)O[C@@H]5[C@H]4O[C@H]4O[C@H](C)[C@H](O)[C@H](OC)[C@H]4O)c3c3oc(=O)c4c(C)ccc5oc(=O)c2c3c54)c1 [Compound No. 184] | – | ≥ 80 | 162 | 199 | –
16 | COC1C(O)C(C)OC(OC2C(Oc3cccc4c(OC(=O)CCc5ccccc5)c5c(=O)oc6ccc(C)c7c(=O)oc(c34)c5c67)OC(C)C3OC(c4ccccc4)OC32)C1O (stereo not shown) [Compound No. 154] | 205 | ≥ 40 | 214 | – | –
17 | COC1C(O)C(C)OC(OC2C(Oc3cccc4c(OC(=O)C(Br)C(C)C)c5c(=O)oc6ccc(C)c7c(=O)oc(c34)c5c67)OC(C)C3OC(C)(C)OC32)C1O (stereo not shown) [Compound No. 172] | – | ≥ 80 | 148 | 195 | –
18 | COC1C(O)C(C)OC(OC2C(Oc3cccc4c(OC(=O)CNC(=O)c5ccccc5)c5c(=O)oc6ccc(C)c7c(=O)oc(c34)c5c67)OC(C)C3OC(C)(C)OC32)C1O (stereo not shown) [compound 88] | – | ≥ 100 | – | – | response vs control in vivo at 50 mg/kg [1, 5]: 157%
19 | CO[C@H]1[C@@H](O)[C@@H](C)O[C@H](O[C@H]2[C@H](Oc3cccc4c(OC(=O)CCCCl)c5c(=O)oc6ccc(C)c7c(=O)oc(c34)c5c67)O[C@H](C)[C@@H]3OC(C)(C)O[C@@H]32)[C@@H]1O [compound 204] | – | ≥ 60 | 174 | – | –
20 | CO[C@H]1[C@@H](O)[C@@H](C)O[C@H](O[C@H]2[C@H](Oc3cccc4c(OC(=O)c5ccc(C#N)cc5)c5c(=O)oc6ccc(C)c7c(=O)oc(c34)c5c67)O[C@H](C)[C@@H]3OC(c4ccccc4Cl)O[C@@H]32)[C@@H]1O (stereo partly shown) [Compound No. 187] | – | ≥ 80 | 130 | 216 | –
21 | COc1ccc(C2OC3C(C)OC(Oc4cccc5c(OC(=O)CCNC(=O)c6ccccc6)c6c(=O)oc7ccc(C)c8c(=O)oc(c45)c6c78)C(OC4OC(C)C(O)C(OC)C4O)C3O2)cc1 (stereo not shown) [compound 96] | – | ≥ 40 | 162 | – | –
22 | COC1C(O)C(C)OC(OC2C(Oc3cccc4c(OC(=O)CCNC(=O)C(Cl)(Cl)Cl)c5c(=O)oc6ccc(C)c7c(=O)oc(c34)c5c67)OC(C)C3OC(c4cccc(Br)c4)OC32)C1O (stereo not shown) [Compound No. 56] | – | ≥ 80 | 165 | 219 | –
23 | COC1C(O)C(C)OC(OC2C(Oc3cccc4c(OC(=O)CCNC(=O)CN)c5c(=O)oc6ccc(C)c7c(=O)oc(c34)c5c67)OC(C)C3OC(c4cccc(F)c4)OC32)C1O (stereo not drawn) [compound 33, 6-O-(glycyl-β-alanyl)-3',4'-O-(m-fluorobenzylidene)-chartreusin phosphate] | 186 | ≥ 40 | – | – | response vs control in vivo at 10 mg/kg [1, 5]: 157%
24 | COC1C(O)C(C)OC(OC2C(Oc3cccc4c(OC(=O)CCCCCCCNC(=O)C(F)(F)F)c5c(=O)oc6ccc(C)c7c(=O)oc(c34)c5c67)OC(C)C3OC(c4cccc(F)c4)OC32)C1O (stereo not shown) [Compound No. 64] | – | ≥ 80 | 165 | 210 | –
25 | CCCCCCCCCC(=O)Oc1c2cccc(OC3OC(C)C4OC(C)(C)OC4C3OC3OC(C)C(O)C(OC)C3O)c2c2oc(=O)c3c(C)ccc4oc(=O)c1c2c43 (stereo not shown) [compound 220] | – | ≥ 60 | – | – | response vs control in vivo at 50 mg/kg [1, 5]: 157%
26 | COC1C(O)C(C)OC(OC2C(Oc3cccc4c(OC(=O)CCCCCCCNC(=O)C(F)(F)F)c5c(=O)oc6ccc(C)c7c(=O)oc(c34)c5c67)OC(C)C3OC(C)(C)OC32)C1O (stereo not shown) [compound 99] | – | ≥ 100 | – | 136 | –
27 | COC1C(O)C(C)OC(OC2C(Oc3cccc4c(OC(=O)C(C)CN(C)C)c5c(=O)oc6ccc(C)c7c(=O)oc(c34)c5c67)OC(C)C3OC(c4ccccc4)OC32)C1O (stereo not drawn) [Compound No. 1, 6-O-(N,N-Dimethyl-β-Amino-Isobutyryl)-3',4'-O-Benzylidene-ChartreusinHydrochloride] | 138 | ≥ 40 | 214 | – | –
28 | COC1C(O)C(C)OC(OC2C(Oc3cccc4c(OC(=O)CNC(=O)CNC(=O)CN)c5c(=O)oc6ccc(C)c7c(=O)oc(c34)c5c67)OC(C)C3OC(c4ccccc4)OC32)C1O (stereo not shown) [Compound No. 11] | 186 | ≥ 40 | – | – | –
